According to US11098294B2, “Anti-inflammatory peptides and composition comprising same” (GemVax & KAEL Co., Ltd., priority 2012, dated 2021):

Tests used:
TNF-α [1] = assay: TNF-α inhibitory effect in PBMC-derived monocyte (ELISA); type: cell-based, human; settings: PBMC-derived monocytes, 4 μM peptide 2 hrs; for TNF-α inhibiting effect compared to the control group treated with only LPS: LPS 10 ng/ml 2 hours; for TNF-α inhibiting effect compared to the group treated with LPS and estrogen: LPS 10 ng/ml, estrogen 20 nM
Method: PBMC (peripheral blood mononuclear cells) layer was separated from blood samples (50 ml) collected in healthy subjects using Biocoll Separating Solution (Biochrom AG, Berlin, Germany). The collected PBMC were enriched in RPMI 1640 medium containing 20% human serum for 30 mins, and then transferred to 100-mm polystyeren cell culture plate coated with human serum for incubation for 2 hrs at 37° C., 5% CO^2 incubator. Monocytes were detached from the bottom of the plate using cold PBS, and incubated to reach the number of 1×10^5 cell/well in 96-well plate with RPMI 1640 medium (supplemented with penicillin-streptomycin; 100 mg/ml, human serum; 20%) over night.
ELISA was performed to find out how the peptides of the PEP RIA series influence TNF-α level. PBMC-derived monocytes were incubated to reach the number of 1×10^5 cells per well in a 96-well plate and then treated with LPS (lipopolysaccharide; 10 ng/ml, Sigma) for 2 hours. To the monocytes that were washed three times with PBS, OPTI-MEM culture medium was added to induce cell starvation for an hour, 4 μM of the peptide was taken out and incubated for 2 hours. There were three negative control groups. The first group was not treated with anything. The second group that was treated with estrogen (in this experiment, estradiol was used as a kind of estrogen). The third group was treated with LPS (10 ng/ml) or with LPS (10 ng/ml) as well as estrogen (20 nM). PEP1 that was confirmed to have TNF-α inhibiting activity was used as a positive control to measure TNF-α inhibiting activity. After incubation, TNF-α was measured by following the ELISA kit manual (R&D, Minneapolis, Minn., USA). The details of quantification method can be found in Experiment 2.2 of Example 1.
Using the method stated above, Peptides with TNF-α inhibiting effect were screened. PBMC-derived monocytes were stimulated with LPS (10 ng/ml), which is endotoxin, for 2 hours and were induced to starve by adding OPTI-MEM for 1 hour. After that, 4 μM of 161 peptides were treated and incubated for 2 hrs. The amount of TNF-α in the cell culture medium was measured using ELISA, and the peptides with TNF-α inhibiting effect were screened by comparing to the negative and positive controls (FIG. 1 to FIG. 16).

TNF-α [2] = assay: TNF-α level in THP1 cell line differentiated by PMA (ELISA); type: cell-based, human; settings: THP-1 differentiated by PMA, 1 μM peptide 1 hour; for reduction of expression level of TNF-α compared to group treated with LPS and estrogen: LPS 10 ng/ml; for reduction of TNF-α level compared to control group treated only with LPS: LPS 10 ng/ml 2 hours
Method: Experiment was carried out using THP-1 cell line (American Type Culture Collection (ATCC), Manassas, Va., USA) which is human acute monocytic leukemia.
THP-1 cells were incubated to reach the number of 1×10^5 cells per well in a 96-well plate with RPMI 1640 medium for 24 hrs, followed by addition of […] of PMA (phorbol 12-myristate 13-acetate) for the differentiation into macrophage. After differentiation of THP-1 into macrophage by PMA for a day, LPS was treated for 2 hrs and washed off. Starvation for an hour and PEP1 treatment followed.
THP-1 cell differentiated by PMA was treated with LPS (lipopolysaccharide; 10 ng/ml, Sigma) for 2 hours, followed by 2 times washes with PBS. To the cells, OPTI-MEM culture medium was added to induce cell starvation for an hour, and 1 μM of 161 peptides was taken out and incubated for an hour. After incubation, TNF-α level was measured by using the ELISA kit and the peptides which reduce the TNF-α level were screened (FIG. 17 to FIG. 35).

Sequence	TNF-α inhibiting effect compared to the control group treated with only LPS (TNF-α [1])	TNF-α inhibiting effect compared to the group treated with LPS and estrogen (TNF-α [1])	reduction of expression level of TNF-α compared to group treated with LPS and estrogen (TNF-α [2])	reduction of TNF-α level compared to control group treated only with LPS (TNF-α [2])
GVPLGLPSPGARRRGGSASR (GVPLGLPAPGARRRGGSASR; listed as Homo sapiens) [SEQ ID NO: 116]	showed TNF-α inhibiting effect	–	–	–
WMPGTPRRLPRLPQRYWQMR (listed as Homo sapiens) [SEQ ID NO: 124]	showed TNF-α inhibiting effect	–	–	–
SRPPRPWDTPCPPVYAETKH (listed as Homo sapiens) [SEQ ID NO: 121]	–	showed TNF-α inhibiting effect	–	–
GTRHSHPSVGRQHHAGPPST (listed as Homo sapiens) [SEQ ID NO: 120]	–	showed TNF-α inhibiting effect	–	–
QWLCHQAFLLKLTRHRVTTV (QWLCHQAFLLKLTRHRVTYV; listed as Homo sapiens) [SEQ ID NO: 159]	–	–	reduce the expression level of TNF-α	–
VLGLDDIHRA (listed as Homo sapiens) [SEQ ID NO: 12]	–	–	reduce the expression level of TNF-α	appeared to reduce the TNF-α level
MPRAPRCRAVRSLLRSHYRE (listed as Homo sapiens) [SEQ ID NO: 48]	–	showed TNF-α inhibiting effect	–	–
LLGASVLGL (listed as Homo sapiens) [SEQ ID NO: 11]	showed TNF-α inhibiting effect	–	–	–
QMPAHGLFPWCGLLLDTRTL (listed as Homo sapiens) [SEQ ID NO: 94]	–	–	–	appeared to reduce the TNF-α level
GLLGASVLG (listed as Homo sapiens) [SEQ ID NO: 29]	–	showed TNF-α inhibiting effect	reduce the expression level of TNF-α	appeared to reduce the TNF-α level
RTFVLRVRAQDPPPE (listed as Homo sapiens) [SEQ ID NO: 7]	–	–	reduce the expression level of TNF-α	appeared to reduce the TNF-α level
LKRVQLRELSEAEVRQ (listed as Homo sapiens) [SEQ ID NO: 47]	–	showed TNF-α inhibiting effect	–	–
DEALGGTAFVQMPAHGLFPW (listed as Homo sapiens) [SEQ ID NO: 151]	–	–	–	appeared to reduce the TNF-α level
YERARRPGL (listed as Homo sapiens) [SEQ ID NO: 10]	–	–	reduce the expression level of TNF-α	appeared to reduce the TNF-α level
RFHACVLQLPFHQQVWKNPT (listed as Homo sapiens) [SEQ ID NO: 156]	–	–	reduce the expression level of TNF-α	–
CGPPLYQLGAATQARPPPHA (listed as Homo sapiens) [SEQ ID NO: 114]	–	–	–	appeared to reduce the TNF-α level
FHQQVWKNPTFFLRVISDTA (listed as Homo sapiens) [SEQ ID NO: 99]	–	showed TNF-α inhibiting effect	–	–

Sequence	TNF-α inhibiting effect compared to the control group treated with only LPS (TNF-α [1])	TNF-α inhibiting effect compared to the group treated with LPS and estrogen (TNF-α [1])	reduction of expression level of TNF-α compared to group treated with LPS and estrogen (TNF-α [2])	reduction of TNF-α level compared to control group treated only with LPS (TNF-α [2])
RLPQRYWQMRPLFLELLGNH (listed as Homo sapiens) [SEQ ID NO: 67]	–	–	–	appeared to reduce the TNF-α level
GASVLGLDDI (listed as Homo sapiens) [SEQ ID NO: 13]	–	–	reduce the expression level of TNF-α	appeared to reduce the TNF-α level
RTRGPSDRGFCVVSPARPAE (listed as Homo sapiens) [SEQ ID NO: 61]	–	showed TNF-α inhibiting effect	–	–
RFMCHHAVRIRGKSYVQCQG (listed as Homo sapiens) [SEQ ID NO: 146]	showed TNF-α inhibiting effect	showed TNF-α inhibiting effect	–	appeared to reduce the TNF-α level
NRGFKAGRNMRRKLFGVLRL (listed as Homo sapiens) [SEQ ID NO: 96]	showed TNF-α inhibiting effect	showed TNF-α inhibiting effect	–	–
EDTDPRRLVQLLRQHSSPWQ (listed as Homo sapiens) [SEQ ID NO: 70]	–	showed TNF-α inhibiting effect	–	appeared to reduce the TNF-α level
SGPRRRLGCERAWMHSVREA (SGPRRRLGCERAWNHSVREA; listed as Homo sapiens) [SEQ ID NO: 115]	showed TNF-α inhibiting effect	–	–	–
SVLNYERARR (listed as Homo sapiens) [SEQ ID NO: 15]	–	–	reduce the expression level of TNF-α	appeared to reduce the TNF-α level
LLVTPHLTHAKTFLRTLVRG (listed as Homo sapiens) [SEQ ID NO: 149]	showed TNF-α inhibiting effect	showed TNF-α inhibiting effect	–	appeared to reduce the TNF-α level
LFSVLNYERARRPGLLGASV (listed as Homo sapiens) [SEQ ID NO: 81]	–	showed TNF-α inhibiting effect	–	–
SVLGLDDIH (listed as Homo sapiens) [SEQ ID NO: 30]	–	–	reduce the expression level of TNF-α	appeared to reduce the TNF-α level
NKLFAGIRRDGLLLRLVDDF (listed as Homo sapiens) [SEQ ID NO: 148]	showed TNF-α inhibiting effect	showed TNF-α inhibiting effect	–	appeared to reduce the TNF-α level
AERLTSRVKALFSVL (listed as Homo sapiens) [SEQ ID NO: 9]	showed TNF-α inhibiting effect	–	reduce the expression level of TNF-α	appeared to reduce the TNF-α level
AQCPYGVLLKTHCPLRAAVT (listed as Homo sapiens) [SEQ ID NO: 68]	–	–	–	appeared to reduce the TNF-α level
LGLDDIHRAWRTFVLRVRAQ (listed as Homo sapiens) [SEQ ID NO: 82]	–	showed TNF-α inhibiting effect	–	–
FFLRVISDTASLCYSILKAK (listed as Homo sapiens) [SEQ ID NO: 157]	–	–	reduce the expression level of TNF-α	–
